Laboratory results: patent US20200239530A1, “COMPOUNDS AND METHODS OF MODULATING PROTEIN DEGRADATION” (Vividion Therapeutics, Inc., priority 2017, published 2020)

How the values were obtained:
Test in all cases: Cysteine liganding, probe competition
Type in all cases: binding
[1] = target: T1, RNF214 RING finger protein 214 (Homo sapiens, UniProt Q8ND24); conditions: for Liganded: RNF214 Res# 655, uniprot Q8ND24
T1 construct: Cells were resuspended in cold PBS on ice and sonicated with a probe sonicator to achieve lysis; endogenous in cells
T1 sequence (Q8ND24 whole entry): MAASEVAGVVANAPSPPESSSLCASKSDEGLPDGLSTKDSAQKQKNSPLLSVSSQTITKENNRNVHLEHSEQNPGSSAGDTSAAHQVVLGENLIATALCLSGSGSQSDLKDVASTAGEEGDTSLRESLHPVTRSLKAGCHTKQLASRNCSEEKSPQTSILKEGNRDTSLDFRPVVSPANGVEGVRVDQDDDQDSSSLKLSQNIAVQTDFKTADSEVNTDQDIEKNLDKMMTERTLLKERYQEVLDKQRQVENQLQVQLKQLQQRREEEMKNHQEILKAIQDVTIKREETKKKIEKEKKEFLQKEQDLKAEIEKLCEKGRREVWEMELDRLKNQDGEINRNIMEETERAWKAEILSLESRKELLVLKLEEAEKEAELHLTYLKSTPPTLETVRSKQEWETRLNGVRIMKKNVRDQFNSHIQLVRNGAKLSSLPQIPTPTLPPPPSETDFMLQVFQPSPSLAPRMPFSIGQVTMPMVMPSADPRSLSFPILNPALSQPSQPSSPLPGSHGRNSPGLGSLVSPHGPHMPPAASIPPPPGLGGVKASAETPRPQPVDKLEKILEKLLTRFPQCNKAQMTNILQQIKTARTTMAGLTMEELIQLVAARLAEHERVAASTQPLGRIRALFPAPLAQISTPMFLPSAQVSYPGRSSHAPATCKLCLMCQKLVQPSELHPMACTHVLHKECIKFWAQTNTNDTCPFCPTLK
How it was run: (§1)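 Probe competition in native proteome: 5 mg/ml lysate, compound 1 hr 25° C, then desthiobiotin iodoacetamide (10 mM stock) 1 hr 25° C; acetone ppt, urea/DTT reduction, iodoacetamide alkylation, trypsin, streptavidin pull-down.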

[2] = target: T2, BIRC3 Baculoviral IAP repeat-containing protein 3 (Homo sapiens, UniProt Q13489)
T2 construct: Cells were resuspended in cold PBS on ice and sonicated with a probe sonicator to achieve lysis; endogenous in cells
T2 sequence (Q13489 whole entry): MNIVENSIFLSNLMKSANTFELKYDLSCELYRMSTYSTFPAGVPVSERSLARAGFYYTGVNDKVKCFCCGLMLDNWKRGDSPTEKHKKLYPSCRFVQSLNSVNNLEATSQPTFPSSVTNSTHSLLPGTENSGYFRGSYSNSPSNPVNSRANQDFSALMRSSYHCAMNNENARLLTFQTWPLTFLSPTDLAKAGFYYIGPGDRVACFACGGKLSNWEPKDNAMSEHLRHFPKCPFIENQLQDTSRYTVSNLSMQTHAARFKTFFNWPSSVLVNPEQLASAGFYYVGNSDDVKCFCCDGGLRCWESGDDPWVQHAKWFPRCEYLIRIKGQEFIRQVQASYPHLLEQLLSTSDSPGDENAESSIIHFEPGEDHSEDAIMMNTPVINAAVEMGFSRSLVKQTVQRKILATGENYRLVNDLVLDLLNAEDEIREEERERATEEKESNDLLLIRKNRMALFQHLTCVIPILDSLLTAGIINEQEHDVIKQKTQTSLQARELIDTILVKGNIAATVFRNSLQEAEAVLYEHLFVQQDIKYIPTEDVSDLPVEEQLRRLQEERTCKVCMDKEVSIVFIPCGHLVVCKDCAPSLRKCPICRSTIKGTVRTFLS
How it was run: as §1

[3] = target: T3, UBR5 E3 ubiquitin-protein ligase UBR5 (Homo sapiens, UniProt O95071)
T3 construct: Cells were resuspended in cold PBS on ice and sonicated with a probe sonicator to achieve lysis; endogenous in cells
T3 sequence (O95071 whole entry): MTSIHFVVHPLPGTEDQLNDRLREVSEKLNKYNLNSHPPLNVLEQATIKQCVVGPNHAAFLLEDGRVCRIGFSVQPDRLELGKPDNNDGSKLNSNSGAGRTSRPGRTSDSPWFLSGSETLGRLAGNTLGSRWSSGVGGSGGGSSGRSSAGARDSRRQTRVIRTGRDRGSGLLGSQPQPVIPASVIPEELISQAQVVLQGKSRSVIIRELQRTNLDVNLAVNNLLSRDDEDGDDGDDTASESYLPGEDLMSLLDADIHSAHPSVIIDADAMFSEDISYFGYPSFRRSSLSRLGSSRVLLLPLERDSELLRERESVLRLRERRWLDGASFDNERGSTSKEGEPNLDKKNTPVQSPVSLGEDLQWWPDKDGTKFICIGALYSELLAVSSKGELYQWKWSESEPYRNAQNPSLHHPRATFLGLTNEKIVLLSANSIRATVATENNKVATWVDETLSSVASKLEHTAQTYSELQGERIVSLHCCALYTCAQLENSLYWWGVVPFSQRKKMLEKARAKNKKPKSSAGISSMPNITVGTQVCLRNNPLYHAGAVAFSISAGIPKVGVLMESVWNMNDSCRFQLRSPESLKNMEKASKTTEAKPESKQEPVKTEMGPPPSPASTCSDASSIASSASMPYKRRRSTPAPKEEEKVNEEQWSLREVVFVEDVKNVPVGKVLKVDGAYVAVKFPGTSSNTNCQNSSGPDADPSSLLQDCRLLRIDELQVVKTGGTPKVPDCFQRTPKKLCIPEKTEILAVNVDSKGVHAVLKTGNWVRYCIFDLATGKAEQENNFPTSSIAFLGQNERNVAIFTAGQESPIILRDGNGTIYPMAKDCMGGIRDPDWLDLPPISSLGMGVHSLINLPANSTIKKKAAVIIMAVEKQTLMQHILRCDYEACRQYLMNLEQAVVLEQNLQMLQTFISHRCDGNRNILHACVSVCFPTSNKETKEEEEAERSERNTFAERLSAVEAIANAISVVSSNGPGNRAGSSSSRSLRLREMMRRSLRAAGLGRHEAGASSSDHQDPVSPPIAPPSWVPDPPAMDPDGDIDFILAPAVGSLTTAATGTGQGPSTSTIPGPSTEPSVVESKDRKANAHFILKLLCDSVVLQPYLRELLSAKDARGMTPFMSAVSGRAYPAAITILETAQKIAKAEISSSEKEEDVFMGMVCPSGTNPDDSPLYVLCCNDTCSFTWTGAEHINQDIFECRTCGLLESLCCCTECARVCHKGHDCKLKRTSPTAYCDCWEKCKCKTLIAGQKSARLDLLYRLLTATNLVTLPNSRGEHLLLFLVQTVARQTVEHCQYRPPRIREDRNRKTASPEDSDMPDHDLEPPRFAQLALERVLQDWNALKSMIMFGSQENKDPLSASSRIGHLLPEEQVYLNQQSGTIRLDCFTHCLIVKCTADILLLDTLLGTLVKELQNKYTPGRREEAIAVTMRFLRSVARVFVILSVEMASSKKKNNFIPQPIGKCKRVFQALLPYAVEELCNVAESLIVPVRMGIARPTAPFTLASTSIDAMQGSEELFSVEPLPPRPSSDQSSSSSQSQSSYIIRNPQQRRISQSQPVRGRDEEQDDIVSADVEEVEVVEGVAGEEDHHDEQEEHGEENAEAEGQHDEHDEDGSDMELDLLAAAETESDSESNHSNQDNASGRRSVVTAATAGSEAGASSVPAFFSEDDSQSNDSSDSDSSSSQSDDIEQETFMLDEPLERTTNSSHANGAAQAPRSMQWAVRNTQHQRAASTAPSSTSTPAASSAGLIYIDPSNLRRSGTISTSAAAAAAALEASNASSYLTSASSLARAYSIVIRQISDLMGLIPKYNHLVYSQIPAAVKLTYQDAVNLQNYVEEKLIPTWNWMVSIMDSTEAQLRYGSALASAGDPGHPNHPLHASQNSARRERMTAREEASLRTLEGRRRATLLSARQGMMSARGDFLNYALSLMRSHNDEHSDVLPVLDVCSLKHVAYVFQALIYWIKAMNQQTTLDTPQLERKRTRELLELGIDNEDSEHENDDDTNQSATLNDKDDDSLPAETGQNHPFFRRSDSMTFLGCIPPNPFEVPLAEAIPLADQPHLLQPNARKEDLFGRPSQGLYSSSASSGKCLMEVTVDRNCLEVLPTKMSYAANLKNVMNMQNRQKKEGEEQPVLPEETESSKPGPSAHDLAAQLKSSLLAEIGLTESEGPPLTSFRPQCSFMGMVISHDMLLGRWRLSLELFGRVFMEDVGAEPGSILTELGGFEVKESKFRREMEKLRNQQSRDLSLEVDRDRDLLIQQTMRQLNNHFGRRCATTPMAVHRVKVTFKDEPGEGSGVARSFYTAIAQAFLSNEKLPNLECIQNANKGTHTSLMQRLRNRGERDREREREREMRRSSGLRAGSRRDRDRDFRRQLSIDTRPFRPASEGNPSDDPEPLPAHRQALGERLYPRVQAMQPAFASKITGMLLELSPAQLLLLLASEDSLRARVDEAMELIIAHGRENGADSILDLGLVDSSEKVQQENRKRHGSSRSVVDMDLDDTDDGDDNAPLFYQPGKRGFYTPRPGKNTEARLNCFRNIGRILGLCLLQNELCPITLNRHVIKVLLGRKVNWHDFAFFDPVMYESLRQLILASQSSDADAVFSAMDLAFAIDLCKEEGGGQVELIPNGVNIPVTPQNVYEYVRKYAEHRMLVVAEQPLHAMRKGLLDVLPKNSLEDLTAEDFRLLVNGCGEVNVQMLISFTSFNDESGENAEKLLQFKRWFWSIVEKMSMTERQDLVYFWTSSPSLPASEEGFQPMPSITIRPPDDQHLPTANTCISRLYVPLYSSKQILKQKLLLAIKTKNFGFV
How it was run: as §1

[4] = target: T4, DDX20 Probable ATP-dependent RNA helicase DDX20 (Homo sapiens, UniProt Q9UHI6)
T4 construct: 200 μL of lysate containing 5 mg/ml proteome was treated with 2 μL of 100× compound stock; endogenous in cells
T4 sequence (Q9UHI6 1-824): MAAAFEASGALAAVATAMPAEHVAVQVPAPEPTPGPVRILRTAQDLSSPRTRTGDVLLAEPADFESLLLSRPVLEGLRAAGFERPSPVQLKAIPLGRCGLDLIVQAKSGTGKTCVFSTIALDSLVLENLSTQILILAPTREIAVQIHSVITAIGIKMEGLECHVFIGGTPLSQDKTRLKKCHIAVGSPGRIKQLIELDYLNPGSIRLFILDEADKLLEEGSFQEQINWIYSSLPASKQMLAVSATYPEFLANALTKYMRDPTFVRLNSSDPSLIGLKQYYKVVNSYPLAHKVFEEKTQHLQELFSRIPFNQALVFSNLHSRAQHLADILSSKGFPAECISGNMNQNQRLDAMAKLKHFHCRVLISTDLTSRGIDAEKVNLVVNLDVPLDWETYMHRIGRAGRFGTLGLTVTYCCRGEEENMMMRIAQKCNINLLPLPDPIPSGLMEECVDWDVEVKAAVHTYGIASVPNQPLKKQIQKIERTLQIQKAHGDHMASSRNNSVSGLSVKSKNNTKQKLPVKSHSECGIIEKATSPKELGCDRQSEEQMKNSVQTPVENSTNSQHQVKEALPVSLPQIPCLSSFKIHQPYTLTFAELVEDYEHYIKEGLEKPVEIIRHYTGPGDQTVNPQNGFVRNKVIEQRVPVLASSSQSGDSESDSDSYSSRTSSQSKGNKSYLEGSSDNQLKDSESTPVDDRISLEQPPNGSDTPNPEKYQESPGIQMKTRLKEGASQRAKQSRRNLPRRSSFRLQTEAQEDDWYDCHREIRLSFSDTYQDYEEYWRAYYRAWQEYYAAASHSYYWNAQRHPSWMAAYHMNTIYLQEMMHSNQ
How it was run: as §1

SMILES | Liganded [1] | Liganded ([2]; BIRC3 Res# 28, uniprot Q13489) | Liganded ([3]; UBR5 Res# 2314, uniprot O95071) | Liganded ([4]; DDX20 Res# 577, uniprot Q9UHI6) | 100 ave ([1]; uniprot Q8ND24) | 500 Max ([1]; uniprot Q8ND24) | 500 ave ([1]; uniprot Q8ND24) | 100 Max ([1]; uniprot Q8ND24, unit assumed) | 100 Max ([2]; uniprot Q13489) | 100 ave ([2]; uniprot Q13489) | 500 Max ([2]; uniprot Q13489) | 500 ave ([2]; uniprot Q13489) | 100 ave ([3]; uniprot O95071) | 500 Max ([3]; uniprot O95071) | 500 ave ([3]; uniprot O95071) | 100 Max ([3]; uniprot O95071, unit assumed) | 100 Max ([4]; uniprot Q9UHI6) | 100 ave ([4]; uniprot Q9UHI6) | 500 Max ([4]; uniprot Q9UHI6) | 500 ave ([4]; uniprot Q9UHI6)
COc1ccc2c(c1)CCCN2C(=O)CCl [KB02] | YES | YES | YES | YES | – | – | – | – | – | – | – | – | – | – | – | – | – | – | – | –
O=C(CCl)Nc1cc(C(F)(F)F)cc(C(F)(F)F)c1 [KBO3] | YES | – | – | – | 24.8 | 96.4 | 65.9 | 35.5% | 1.3 | −2.6 | 18.7 | 18.7 | −2.4 | 33.0 | 26.8 | 9.2% | 0.85 | −6.7225 | 37.31 | 31.49
